Assay results taken from patent US20070056049A1, “p53 and VEGF regulate tumor growth of NOS2 expressing cancer cells” (The Govt. of the USA as represented by the Secretary of the …, priority 1998, published 2007).
Entries after “also recorded” stand apart in the source; their conditions may differ.

Key:
[1] = test system: VEGF secretion of NOS2-expressing Calu-6 cells; test: VEGF secretion into culture medium of NOS2-expressing Calu-6 cell clones (immunoprecipitation, western blot); type: cell-based, human; conditions: 2 mM L-NMA, 48 hr, 3×10^6 cells in 4 ml of medium
Procedure: FIG. 7a-b: VEGF protein concentrations are higher (4.3 and 7.1-fold) in the culture medium of NOS2-expressing Calu-6 cells clones than in the culture medium of vector controls (A) and correlate with increased VEGF mRNA expression (B). […] 3×10^6 cells were cultured in 4 ml of medium for 48 hr±2 mM L-NMA. VEGF was immunoprecipitated out of 1 ml of culture medium. The 4.4 kb VEGF mRNA was detected by northern blotting was a 522 bp ^32P-labeled cDNA (exon 1-7), and the 7.5 kb polycistronic mRNA encoding NOS2 with the full-length human NOS2 cDNA (Geller et al., Proc. Natl. Acad. Sci. U.S.A. 90:3491-3495 (1993); Tzeng et al., Proc. Nat'l Acad. Sci USA 92:11771-11775 (1995)).
NOS2 and VEGF western blot analysis: Cell lysates for western blotting were prepared by solubilization of cell pellets in RIPA butter. VEGF protein concentrations were determined as follows. Five μg of rabbit polyclonal anti-VEGF antibody (Santa Cruz Biotechnology) were added to either 1 mg of cellular protein extract or 1 ml of cell culture medium, incubated for 1 hr at 8-10° C., and then mixed with protein A-sepharose (10 mg) for 1 hr. […] After transfer to an Immunobilon-P membrane (Millipore), NOS2 and VEGF protein were detected with either a polyclonal anti-NOS2 antibody (Merck), 1:40,000 diluted, or a polyclonal anti-VEGF, 1:1000 diluted, as described (Ambs et al., Cancer Res. 58:334-341 (1998)).

[2] = test system: NOS2-expressing LoVo cells; test: Tumor xenoplantation of NOS2-expressing LoVo cells in athymic nude mice; type: in vivo; conditions: wild-type p53 LoVo cells, slow-growing tumors
Source text: (§1) FIG. 2a-d: Tumor probability of NOS2-expressing human carcinoma cells lines is dependent on the p53 status. 3×10^6 cells of NOS2-expressing Calu-6 and LoVo carcinoma cells, and the vector controls (BaglacZ), were inoculated into 10 athymic nude mice, respectively. NOS2-expressing LoVo cells, which have two wild-type p53 alleles, grow slower (A) and produce smaller tumors (C) than vector controls (BaglacZ). In contrast, NOS2-expressing Calu-6 cells, which lack expression of functional p53, grow faster (B) and produce larger tumors (D) than the vector controls.
(§2) A. Methods Tumor xenoplantation: Suspensions of 3×10^5 to 5×10^6 cells in a volume of 0.2 ml were injected at a single subcutaneous site into athymic nude mice previously irradiated with 350 rads. Either 10 or 20 animals were injected per experiment. A nodule was scored as a tumor when it measured 125 mm^3 or more by its largest two dimensions.
(§3) Statistical Analysis: The Kaplan-Meier survival analysis was used to calculate the statistical significance of tumor probabilities in different treatment groups. Other comparisons were carried out by the two-tailed Student's t-test. Relationships are considered statistically significant when p<0.05.

[3] = test system: NOS2-expressing HT-29 colon carcinoma cells; test: Tumor xenoplantation of NOS2-expressing HT-29 colon carcinoma cells in athymic nude mice; type: in vivo; conditions: 1% AG in the drinking water; mutant p53 HT-29 cells; Kaplan-Meier analysis p=0.002
Procedure: 3×10^5 cells of NOS2 (Retro-HNOS) and β-galactosidase (BaglacZ) expressing HT-29 cells were inoculated into 40 athymic nude mice, respectively. Half of the animals in both groups received 1% AG in the drinking water. […] This effect is abolished (p=0.002) through treatment with 1% AG.
as §2, §3

[4] = test system: NOS2-expressing Calu-6 cells; test: Tumor xenoplantation of NOS2-expressing Calu-6 cells in athymic nude mice; type: in vivo; conditions: 1% AG; p53 null Calu-6 cells, subcutaneous tumors; p<0.05, two-tailed Student's t-test
Source text: as §1, §2, §3

SMILES	VEGF secretion into the culture medium [1]	tumor growth of NOS2-expressing LoVo cells [2]	tumor probability / tumor growth of NOS2-expressing HT-29 cells [3]	tumor growth of NOS2-expressing Calu-6 cells [4]
CNC(=N)NCCC[C@H](N)C(=O)O [L-NMA, NG-monomethyl-L-arginine]	reduced the VEGF secretion; also recorded: decreases VEGF secretion	–	–	–
N=C(N)NN [aminoguanidine]	–	lack of an aminoguanidine effect	significantly reduced the tumor growth; also recorded: reverses the growth stimulatory effect of NOS2	significantly reduced the tumor growth; also recorded: inhibited; also recorded: suppressed the tumor growth
